Results from patent US9771359B1, “Substituted oxazole- and thiazole-based carboxamide and urea derivatives as vanilloid receptor ligands II” (MEDIFRON DBT INC., priority 2014, dated 2017).
Where a name gives a salt, the structure may show the parent alone.

Biological target: vanilloid receptor 1 (VR1/TRPV1) (Homo sapiens (Human), UniProt Q8NER1)
Test: FLIPR assay, Ca2+ influx in CHO K1 cells transfected with the human VR1 gene
Assay type: cell-based
Conditions: for compound-alone effect on Ca2+ influx (agonist / partial agonist): compound 5 μM, % activation compared with control capsaicin 10 μM; for Ki: displacement of capsaicin 100 nM, Ki from IC50 by Cheng-Prusoff equation, read-out: (f) Ki (human) [nM] Cap
Method: Furthermore, preference may be given to compounds according to the first aspect of the invention that cause a 50% displacement of capsaicin, which is present at a concentration of 100 nM, in a FLIPR assay with CHO K1 cells which were transfected with the human VR1 gene at a concentration of less than 2 000 nM, preferably less than 1 000 nM, particularly preferably less than 300 nM, most particularly preferably less than 100 nM, even more preferably less than 75 nM, additionally preferably less than 50 nM, most preferably less than 10 nM. In the process, the Ca^2+ influx is quantified in the FLIPR assay with the aid of a Ca^2+-sensitive dye (type Fluo-4, Molecular Probes Europe BV, Leiden, the Netherlands) in a fluorescent imaging plate reader (FLIPR, Molecular Devices, Sunnyvale, USA), as described hereinafter.
The FLIPR protocol consists of 2 substance additions during a kinetic measurement. First the compounds to be tested (5 μM) are pipetted onto the cells and the Ca^2+ influx is determined in comparison to the control (capsaicin 10 μM), providing the result as % activation and representing the compound-alone effect (calculation at peak signal related to baseline). […] After 5 min incubation, the Ca^2+ influx is related to an injection of 100 nM of capsaicin and thereby the antagonistic effect of the test compounds detected.
Desensitising agonists and antagonists lead to suppression of the Ca^2+ influx. The % inhibition is calculated compared to the maximum achievable inhibition with 10 μM of capsaicin. Triple analyses (n=3) are carried out and repeated in at least 3 independent experiments.
Starting from the percentage displacement caused by different concentrations of the compounds to be tested of general formula I, IC50 inhibitory concentrations which cause a 50-% displacement of capsaicin were calculated. Ki values for the test substances were obtained by conversion by means of the Cheng-Prusoff equation (Cheng, Prusoff; Biochem. Pharmacol. 22, 3099-3108, 1973).
Chinese hamster ovary cells (CHO K1 cells, European Collection of Cell Cultures (ECACC) United Kingdom) are stably transfected with the VR1 gene. For functional testing, these cells are plated out on poly-D-lysine-coated black 96-well plates having a clear base (BD Biosciences, Heidelberg, Germany) at a density of 25,000 cells/well. The cells are incubated overnight at 37° C. and 5% CO2 in a culture medium (Ham's F12 nutrient mixture, 10% by volume of FCS (foetal calf serum), 18 μg/ml of L-proline). The next day the cells are incubated with Fluo-4 (Fluo-4 2 μM, 0.01% by volume of Pluronic F127, Molecular Probes in HBSS (Hank's buffered saline solution), Gibco Invitrogen GmbH, Karlsruhe, Germany) for 30 min at 37° C. Subsequently, the plates are washed three times with HBSS buffer and after further incubation for 15 min at RT used for Ca^2+ measurement in a FLIPR assay. The Ca^2+-dependent fluorescence is measured before and after the addition of the substances to be tested (λex wavelength=488 nm, λem=540 nm). Quantification is carried out by measuring the highest fluorescence intensity (FC, fluorescence counts) over time.

Sequence of vanilloid receptor 1 (VR1/TRPV1) (Q8NER1 whole entry): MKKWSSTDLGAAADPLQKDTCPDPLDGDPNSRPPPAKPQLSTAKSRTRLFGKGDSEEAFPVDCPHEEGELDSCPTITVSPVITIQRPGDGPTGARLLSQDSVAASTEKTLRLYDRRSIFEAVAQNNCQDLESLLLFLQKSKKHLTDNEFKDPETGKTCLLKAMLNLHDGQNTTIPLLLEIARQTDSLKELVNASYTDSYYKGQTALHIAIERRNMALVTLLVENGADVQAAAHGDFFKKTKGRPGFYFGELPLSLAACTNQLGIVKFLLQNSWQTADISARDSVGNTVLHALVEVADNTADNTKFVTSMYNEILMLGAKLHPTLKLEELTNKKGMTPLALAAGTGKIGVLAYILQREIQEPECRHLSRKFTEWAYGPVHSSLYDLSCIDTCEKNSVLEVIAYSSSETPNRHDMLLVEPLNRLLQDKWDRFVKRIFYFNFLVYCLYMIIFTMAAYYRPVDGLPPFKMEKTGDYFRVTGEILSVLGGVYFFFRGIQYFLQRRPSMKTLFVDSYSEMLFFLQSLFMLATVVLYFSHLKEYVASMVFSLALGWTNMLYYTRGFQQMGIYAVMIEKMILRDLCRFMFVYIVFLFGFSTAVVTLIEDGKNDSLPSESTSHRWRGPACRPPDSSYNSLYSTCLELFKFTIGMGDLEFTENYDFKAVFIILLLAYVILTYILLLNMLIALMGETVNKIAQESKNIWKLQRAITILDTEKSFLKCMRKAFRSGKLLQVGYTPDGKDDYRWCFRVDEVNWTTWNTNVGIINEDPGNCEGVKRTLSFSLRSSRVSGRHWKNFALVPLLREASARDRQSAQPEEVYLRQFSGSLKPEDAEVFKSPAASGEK

O=C(NCc1sc(C(F)(F)F)nc1-c1cccc(Cl)c1)Nc1ccc(CCO)nc1 [EX-34, 1-((4-(3-chlorophenyl)-2-(trifluoromethyl)thiazol-5-yl)methyl)-3-(6-(2-hydroxyethyl)pyridin-3-yl)urea]
compound-alone effect on Ca2+ influx (agonist / partial agonist): pAG (A Ca^2+ influx of 10%-60% reveals a partial agonist (pAG)) | Ki: 30.2 nM

Cc1cccc(-c2nc(C(C)(C)C)sc2CNC(=O)C(C)c2ccc(CNS(C)(=O)=O)c(F)c2)c1 (centres unmarked) [EX-04, N-((2-(tert-butyl)-4-(m-tolyl)thiazol-5-yl)methyl)-2-(3-fluoro-4-(methylsulfonamidomethyl)phenyl)propanamide]
compound-alone effect on Ca2+ influx (agonist / partial agonist): pAG (A Ca^2+ influx of 10%-60% reveals a partial agonist (pAG)) | Ki: 1 nM

CC(C)(C)c1nc(-c2cccc(Cl)c2)c(CNC(=O)Nc2ccc3c(c2)CCC3)s1 [EX-55, 1-((2-(tert-butyl)-4-(3-chlorophenyl)thiazol-5-yl)methyl)-3-(2,3-dihydro-1H-inden-5-yl)urea]
Ki: 12.3 nM

CC(C(=O)NCc1sc(C(C)(C)C)nc1-c1cccc(Cl)c1)c1ccc(CO)c(F)c1 (centres unmarked) [EX-07, N-((2-(tert-butyl)-4-(3-chlorophenyl)thiazol-5-yl)methyl)-2-(3-fluoro-4-(hydroxymethyl)phenyl)propanamide]
compound-alone effect on Ca2+ influx (agonist / partial agonist): AG (a Ca^2+ influx of >60% relates to a pure agonist (AG))

CC(C(=O)NCc1oc(C(F)(F)F)nc1-c1cccc(Cl)c1)c1ccc(NCCO)nc1 (single isomer, unassigned) [EX-18, N-((4-(3-chlorophenyl)-2-(trifluoromethyl)oxazol-5-yl)methyl)-2-(6-((2-hydroxyethyl)amino)pyridin-3-yl)propanamide]
Ki: 96.7 nM

CC(C(=O)NCc1oc(C(F)(F)F)nc1-c1cccc(Cl)c1)c1ccc(CNS(N)(=O)=O)cc1 (centres unmarked) [EX-05, N-((4-(3-chlorophenyl)-2-(trifluoromethyl)oxazol-5-yl)methyl)-2-(4-((sulfamoylamino)methyl)-phenyl)propanamide]
Ki: 7.5 nM

Cc1cccc(-c2nc(C(C)(C)C)sc2CNC(=O)Nc2ccc(CNS(C)(=O)=O)c(F)c2)c1 [EX-58, N-(4-(3-((2-(tert-butyl)-4-(m-tolyl)thiazol-5-yl)methyl)ureido)-2-fluorobenzyl)methanesulfonamide]
Ki: 2.3 nM

Cc1cccc(-c2nc(C(C)(C)C)sc2CNC(=O)Nc2ccc(CO)c(F)c2)c1 [EX-60, 1-((2-(tert-butyl)-4-(m-tolyl)thiazol-5-yl)methyl)-3-(3-fluoro-4-(hydroxymethyl)phenyl)urea]
compound-alone effect on Ca2+ influx (agonist / partial agonist): pAG (A Ca^2+ influx of 10%-60% reveals a partial agonist (pAG)) | Ki: 3.2 nM

CC(C)(C)c1nc(-c2cccc(Cl)c2)c(CNC(=O)Nc2ccc(CCO)nc2)o1 [EX-35, 1-((2-(tert-butyl)-4-(3-chlorophenyl)oxazol-5-yl)methyl)-3-(6-(2-hydroxyethyl)pyridin-3-yl)urea]
Ki: 78.4 nM

CC(C)(C)c1nc(CNC(=O)Nc2ccc(CNS(N)(=O)=O)cc2)c(-c2cccc(Cl)c2)o1 [EX-44, N-((5-(3-chlorophenyl)-2-(tertbutyl)oxazol-4-yl)methyl)-N′-(4-((sulfamoylamino)methyl)phenyl)urea]
Ki: 29.9 nM

CC(C(=O)NCc1sc(C(F)(F)F)nc1-c1cccc(Cl)c1)c1ccc(CCO)c(F)c1 (centres unmarked) [EX-01, N-((4-(3-chlorophenyl)-2-(trifluoromethyl)thiazol-5-yl)methyl)-2-(3-fluoro-4-(2-hydroxyethyl)phenyl)-propanamide]
Ki: 1.4 nM

CS(=O)(=O)CCc1ccc(NC(=O)NCc2sc(C(F)(F)F)nc2-c2cccc(Cl)c2)cn1 [EX-31, 1-((4-(3-chlorophenyl)-2-(trifluoromethyl)thiazol-5-yl)methyl)-3-(6-(2-(methylsulfonyl)ethyl)pyridin-3-yl)urea]
Ki: 48.8 nM

CC(C(=O)NCc1sc(C(C)(C)C)nc1-c1cccc(Cl)c1)c1ccc(CNS(C)(=O)=O)c(F)c1 (centres unmarked) [EX-03, N-((2-(tert-butyl)-4-(3-chlorophenyl)thiazol-5-yl)methyl)-2-(3-fluoro-4-(methylsulfonamido-methyl)phenyl)propanamide]
Ki: 0.6 nM

O=C(NCc1sc(C(F)(F)F)nc1-c1cccc(Cl)c1)Nc1ccc(N2CC(O)C2)nc1 [EX-33, 1-((4-(3-chlorophenyl)-2-(trifluoromethyl)thiazol-5-yl)methyl)-3-(6-(3-hydroxyazetidin-1-yl)pyridin-3-yl)urea]
Ki: 24.6 nM

CS(=O)(=O)CCc1ccc(NC(=O)NCc2oc(C(F)(F)F)nc2-c2cccc(Cl)c2)cn1 [EX-30, 1-((4-(3-chlorophenyl)-2-(trifluoromethyl)oxazol-5-yl)methyl)-3-(6-(2-(methylsulfonyl)ethyl)pyridin-3-yl)urea]
inhibition at 5 µM (CHO-K1, @5 μM test compound, capsaicin 100 nM, read-out: inhibition (as a percentage), Cap): 41%

CC(C(=O)NCc1sc(C(F)(F)F)nc1-c1cccc(Cl)c1)c1cnc(CO)c(F)c1 (centres unmarked) [EX-20, N-((4-(3-chlorophenyl)-2-(trifluoromethyl)thiazol-5-yl)methyl)-2-(5-fluoro-6-(hydroxymethyl)pyridin-3-yl)propanamide]
Ki: 0.3 nM

CC(C)(C)c1nc(-c2cccc(Cl)c2)c(CNC(=O)Nc2cccc3ncccc23)s1 [EX-53, 1-((2-(tert-butyl)-4-(3-chlorophenyl)thiazol-5-yl)methyl)-3-(quinolin-5-yl)urea]
compound-alone effect on Ca2+ influx (agonist / partial agonist): AG (a Ca^2+ influx of >60% relates to a pure agonist (AG))

CC(C)(C)c1nc(-c2cccc(Cl)c2)c(CNC(=O)Nc2ccc3cnccc3c2)s1 [EX-52, 1-((2-(tert-butyl)-4-(3-chlorophenyl)thiazol-5-yl)methyl)-3-(isoquinolin-6-yl)urea]
compound-alone effect on Ca2+ influx (agonist / partial agonist): AG (a Ca^2+ influx of >60% relates to a pure agonist (AG))

CC(C(=O)NCc1sc(C(F)(F)F)nc1-c1cccc(Cl)c1)c1ccc(CNS(N)(=O)=O)c(F)c1 (centres unmarked) [EX-24, N-((4-(3-chlorophenyl)-2-(trifluoromethyl)thiazol-5-yl)methyl)-2-(3-fluoro-4-((sulfamoylamino)methyl)phenyl)propanamide]
Ki: 2.35 nM

O=C(NCc1sc(C(F)(F)F)nc1-c1cccc(Cl)c1)Nc1ccc(COCCO)nc1 [EX-49, 1-((4-(3-chlorophenyl)-2-(trifluoromethyl)thiazol-5-yl)methyl)-3-(6-((2-hydroxyethoxy)methyl)pyridin-3-yl)urea dihydrochloride]
Ki: 35 nM

CC(C)(C)c1nc(-c2cccc(Cl)c2)c(CNC(=O)Nc2ccc3c(c2)OCO3)s1 [EX-50, 1-(benzo[d][1,3]dioxol-5-yl)-3-((2-(tert-butyl)-4-(3-chlorophenyl)thiazol-5-yl)methyl)urea]
compound-alone effect on Ca2+ influx (agonist / partial agonist): pAG (A Ca^2+ influx of 10%-60% reveals a partial agonist (pAG)) | Ki: 5.6 nM

CC(C(=O)NCc1oc(C(F)(F)F)nc1-c1cccc(Cl)c1)c1cnc(CO)c(F)c1 (centres unmarked) [EX-21, N-((4-(3-chlorophenyl)-2-(trifluoromethyl)oxazol-5-yl)methyl)-2-(5-fluoro-6-(hydroxymethyl)pyridin-3-yl)propanamide]
(f) Ki (human) Cap: no effect (inhibition <10% @5 μM): ne (ne=no effect (<10% @5 μM))

O=C(NCc1sc(C(F)(F)F)nc1-c1cccc(Cl)c1)Nc1ccc(CO)nc1 [EX-28, 1-((4-(3-chlorophenyl)-2-(trifluoromethyl)thiazol-5-yl)methyl)-3-(6-(hydroxymethyl)pyridin-3-yl)urea]
Ki: 19.4 nM

CC(C(=O)NCc1sc(C(F)(F)F)nc1-c1cccc(Cl)c1)c1ccc(NCCO)nc1 (centres unmarked) [EX-14, N-((4-(3-chlorophenyl)-2-(trifluoromethyl)thiazol-5-yl)methyl)-2-(6-((2-hydroxyethyl)amino)pyridin-3-yl)propanamide]
Ki: 0.7 nM

CC(C(=O)NCc1oc(C(F)(F)F)nc1-c1cccc(Cl)c1)c1ccc(CNS(N)(=O)=O)c(F)c1 (centres unmarked) [EX-23, N-((4-(3-chlorophenyl)-2-(trifluoromethyl)oxazol-5-yl)methyl)-2-(3-fluoro-4-((sulfamoylamino)methyl)phenyl)propanamide]
Ki: 4.7 nM
